Patent US20230382869A1, “Phenyl-3,4-dihydroisoquinolin-2(1h)-yl-ethan-1-one derivatives as dopamine d1receptor positive allosteric modulators” (Eli Lilly and Company, priority 2020, published 2023)
Where two headings read alike, the source gives them in different places.

Experiments:
[1] = biological target: human D1 receptor (Homo sapiens (Human), UniProt P21728); experiment: Human D1 Receptor PAM Assay (cAMP HTRF, potentiator mode); type: cell-based
Source text: The PAM activity of the compounds of the present invention may be measured essentially as described in Svensson et al., An Allosteric Potentiator of the Dopamine D1 Receptor Increases Locomotor Activity in Human D1 Knock-in Mices without Casusing Stereotypy or Tachyphylaxis. J. Pharmacol. Exp. Ther. (2017) 360:117-128.
More specifically, HEK293 cells that stably express the human D1 receptor (Accession number NM_000794) are generated by gene transduction using the pBABE-bleo retroviral vector and selected with Zeocin™ (InvivoGen). At approximately 80% confluency, the cells are harvested using TrypLE™ Express (Gibco), suspended in FBS plus 8% DMSO, and stored in liquid nitrogen. On the day of the assay, cells are thawed and resuspended in STIM buffer (Hanks Balanced Salt Solution supplemented with 0.1% BSA, 20 mM HEPES, 500 μM IBMX, and 100 μM ascorbic acid).
Test compound is serially diluted (1:2) with DMSO into assay plates (ProxiPlate-384 Plus, PerkinElmer) using acoustic dispensing (Labcyte) to provide 20 concentrations for full response curves. Test compound (80 nL) is added to 5 μL STIM buffer containing 2000 cells, and 5 μL of a 2×concentration dopamine solution in STIM buffer that will generate an EC20 level response (24 nM in stock solution, or 12 nM final) and a final DMSO concentration in the well of 0.8%. Plates are incubated at room temperature for a total reaction time of 60 min.
cAMP production is quantified using HTRF® detection (Cisbio) according to the manufacturer's instructions. Generally, lysis buffer containing anti-cAMP cryptate (5 μL) and D2-conjugate (from HTRF® kit)(5 μL) is added to the wells, plates are incubated for an additional 60-90 min, and the time-resolved fluorescence is detected using an EnVision™ plate reader (PerkinElmer). Fluorescence data is converted to cAMP concentrations using a cAMP standard curve and analyzing using a 4-parameter non-linear logistic equation (Genedata Screener, version 13.0.5-standard). For potentiator mode concentration-response curves, results are expressed as percent of the window between a response at EC20 concentration of dopamine alone (normalized to 0%) and the maximum response to dopamine (defined by response to 5 μM dopamine, final concentration, normalized as 100%). Absolute EC50 values are calculated based on the maximum and minimum responses of the control agonist (dopamine). The % Potentiation (% Top) is determined from the fitted top of the concentration response curve.

[2] = Plasma and Brain Levels after oral dosing; type: in vivo, mouse; conditions: for Kp uu at 1 h: ratio Cu,brain vs Cu,plasma
Description: Example 7, 2-(2-chloro-6-fluoro-phenyl)-1-[(1S,3R)-6-fluoro-3-(hydroxymethyl)-5-(3-hydroxy-3-methyl-butyl)-1-methyl-3,4-dihydro-1H-isoquinolin-2-yl]ethenone, was orally dosed to male mouse from 3 mg/kg to 60 mg/kg in fed condition, and the plasma and brain concentration was determined 1 hr post-dose. The fraction unbound of the compound was determined in vitro as described previously (Zamek-Gliszczynski M J, et al., Validation of 96-well equilibrium dialysis with non-radiolabeled drug for definitive measurement of protein binding and application to clinical development of highly-bound drugs, J. Pharm. Sci. (2011) 100: 2498-2507). The ratio (Kpuu) of unbound brain concentration (Cu, brain) vs. unbound plasma concertation (Cu, plasma) was determined as described previously (Raub T J, et al., Brain Exposure of Two Selective Dual CDK4 and CDK6 Inhibitors and the Antitumor Activity of CDK4 and CDK6 Inhibition in Combination with Temozolomide in an Intracranial Glioblastoma Xenograft. Drug Metab. Dispos. (2015) 43:1360-71). The data presented below in Table 3 for Example 7 are averages from 3 animals at each dose. “Con.” refers to concentration.

[3] = biological target: CYP3A4 (Homo sapiens (Human), UniProt P08684); experiment: Calculation of fraction of compound cleared through CYP3A4 metabolism (fmCYP3A4); conditions: fmCYP × fm3A4_RCP (worst-case fm3A4_RCP = 1)
Source text: The fraction of overall clearance of a drug via oxidative metabolism by the cytochrome P450 (CYP) is an important indication for potential victim drug-drug interaction mediated adverse effects. (see generally Ogu, Chris C., and Maxa, Jan L., Drug interactions due to cytochrome P450, BUMC Proceedings 2000; 13:421-423.) The greater fraction of overall clearance for a given drug that goes though a CYP oxidation pathway, particularly exclusively through a single CYP, as for example CYP3A4, the greater the potential that the drug may be found susceptible to undesired victim drug-drug interactions when used in therapy. To determine the fmCYP3A4 (the fraction of metabolism via CYP3A4), the fraction of P450-mediated oxidation, (fmCYP) is first determined in human hepatocytes. The relative contribution of CYP3A4 mediated oxidation (fmCYP3A4_RCP) over other P450 s is then determined using a recombinant CYP phenotyping assay (RCP). The fmCYP3A4 is calculated using the following equation:
fmCYP3A4=fmCYP×fmCYP3A4_RCP
The renal and biliary excretion of test compounds is tested in bile-duct cannulated dogs essentially according to Burkey J L, et al. (2002) Disposition of LY333531, a selective protein kinase C beta inhibitor, in the Fischer 344 rat and beagle dog. Xenobiotica 32:1045-1052. […] The fraction of compound cleared through CYP3A4 metabolism is calculated using the equation below: […]

[4] = Passive permeability in MDCKII cell line (Papp); type: in vitro ADME; conditions: dog, MDCK
Source text: Papp is the passive permeability measured in MDCKII cell line in house

Sequence of human D1 receptor (P21728 whole entry): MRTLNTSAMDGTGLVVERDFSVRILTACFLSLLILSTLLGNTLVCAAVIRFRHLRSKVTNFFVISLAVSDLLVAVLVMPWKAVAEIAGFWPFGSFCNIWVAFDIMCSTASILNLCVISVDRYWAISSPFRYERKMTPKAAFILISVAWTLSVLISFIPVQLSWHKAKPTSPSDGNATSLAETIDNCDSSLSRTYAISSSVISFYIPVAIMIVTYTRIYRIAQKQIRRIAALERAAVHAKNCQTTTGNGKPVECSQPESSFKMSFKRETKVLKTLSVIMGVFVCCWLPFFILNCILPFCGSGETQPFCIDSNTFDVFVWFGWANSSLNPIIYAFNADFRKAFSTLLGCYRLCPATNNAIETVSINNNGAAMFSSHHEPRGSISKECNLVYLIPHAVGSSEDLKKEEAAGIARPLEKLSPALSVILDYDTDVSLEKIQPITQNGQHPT

C[C@H]1c2ccc(F)c(CCC(C)(C)O)c2C[C@H](CO)N1C(=O)Cc1c(F)cccc1Cl [Example 7, 2-(2-chloro-6-fluoro-phenyl)-1-[(1S,3R)-6-fluoro-3-(hydroxymethyl)-5-(3-hydroxy-3-methyl-butyl)-1-methyl-3,4-dihydro-1H-isoquinolin-2-yl]ethanone]
EC50 ([1]; HEK293 cells expressing human D1, with EC20 dopamine (12 nM final), cAMP, read-out: Abs EC50): 10.2 ± 1.4 nM | % Top (% Potentiation) ([1]; fitted top, 0% = EC20 dopamine alone, 100% = 5 μM dopamine): 90.9% | concentration at 1 h ([2]; brain, 3 mg/kg oral, 1 hr post-dose, male mouse, fed, read-out: Brain con.): 18 nM | concentration at 1 h ([2]; brain, 6 mg/kg oral, 1 hr post-dose, male mouse, fed, read-out: Brain con.): 45.1 nM | concentration at 1 h ([2]; brain, 10 mg/kg oral, 1 hr post-dose, male mouse, fed, read-out: Brain con.): 84.9 nM | concentration at 1 h ([2]; brain, 30 mg/kg oral, 1 hr post-dose, male mouse, fed, read-out: Brain con.): 557 nM | concentration at 1 h ([2]; brain, 60 mg/kg oral, 1 hr post-dose, male mouse, fed, read-out: Brain con.): 1290 nM | Kp uu at 1 h ([2]; male, mouse, 3 mg/kg oral, 1 hr): 0.126 | Kp uu at 1 h ([2]; male, mouse, 6 mg/kg oral, 1 hr): 0.143 | Kp uu at 1 h ([2]; male, mouse, 10 mg/kg oral, 1 hr): 0.122 | Kp uu at 1 h ([2]; male, mouse, 30 mg/kg oral, 1 hr): 0.194 | Kp uu at 1 h ([2]; male, mouse, 60 mg/kg oral, 1 hr): 0.248 | concentration at 1 h ([2]; male, mouse, unbound brain concentration, 3 mg/kg oral, 1 hr, read-out: Cu, brain): 0.448 nM | concentration at 1 h ([2]; male, mouse, unbound brain concentration, 6 mg/kg oral, 1 hr, read-out: Cu, brain): 1.12 nM | concentration at 1 h ([2]; male, mouse, unbound brain concentration, 10 mg/kg oral, 1 hr, read-out: Cu, brain): 2.11 nM | concentration at 1 h ([2]; male, mouse, unbound brain concentration, 30 mg/kg oral, 1 hr, read-out: Cu, brain): 13.9 nM | concentration at 1 h ([2]; male, mouse, unbound brain concentration, 60 mg/kg oral, 1 hr, read-out: Cu, brain): 32.1 nM | concentration at 1 h ([2]; male, mouse, unbound plasma concentration, 3 mg/kg oral, 1 hr, read-out: Cu, plasma): 4.97 nM | concentration at 1 h ([2]; male, mouse, unbound plasma concentration, 6 mg/kg oral, 1 hr, read-out: Cu, plasma): 9.62 nM | concentration at 1 h ([2]; male, mouse, unbound plasma concentration, 10 mg/kg oral, 1 hr, read-out: Cu, plasma): 17.1 nM | concentration at 1 h ([2]; male, mouse, unbound plasma concentration, 30 mg/kg oral, 1 hr, read-out: Cu, plasma): 70.1 nM | concentration at 1 h ([2]; male, mouse, unbound plasma concentration, 60 mg/kg oral, 1 hr, read-out: Cu, plasma): 128 nM | concentration at 1 h ([2]; plasma, 3 mg/kg oral, 1 hr post-dose, male mouse, fed, read-out: Plasma con.): 353 nM | concentration at 1 h ([2]; plasma, 6 mg/kg oral, 1 hr post-dose, male mouse, fed, read-out: Plasma con.): 682 nM | concentration at 1 h ([2]; plasma, 10 mg/kg oral, 1 hr post-dose, male mouse, fed, read-out: Plasma con.): 1210 nM | concentration at 1 h ([2]; plasma, 30 mg/kg oral, 1 hr post-dose, male mouse, fed, read-out: Plasma con.): 4980 nM | concentration at 1 h ([2]; plasma, 60 mg/kg oral, 1 hr post-dose, male mouse, fed, read-out: Plasma con.): 9080 nM | fmCYP3A4 [3]: 0.322 | Papp [4]: 37.9 ×10⁻⁶ cm/s
